Assay results as given in patent publication US9458465B2, “Compositions and methods to modulate cell membrane resealing” (RUTGERS, THE STATE UNIVERSITY OF NEW JERSEY, priority 2007, dated 2016).
Substitutions are numbered along the chain they refer to. Names and notes keep the numbering of the source.

Legend:
[1] = tested on: FDB muscle fibers from wild type (WT) mice; assay: FM1-43 dye entry after UV-laser damage, wild type FDB muscle fibers; assay type: cell-based
Description: (§1) FIG. 20. Protective effect of zinc on membrane repair is lost in mg53−/− skeletal muscle. (a) individual flexor digitorum brevis (FDB) muscle fibers were isolated from wild type (WT) mice (3-6 months). A strong UV laser was applied to the FDB fiber that caused local damage to the muscle (arrow). Entry of FM1-43 fluorescent dye (2.5 μM) was used as an indicator for the measurement of membrane repair capacity. The images were taken 200 s following UV irradiation (control). […] (d) Schematic diagram of zinc-binding motifs in MG53. The amino-terminus of MG53 contains two putative zinc-binding motifs: one located at the RING motif (a.a. 1-56, human cDNA), and the other located at the B-box motif (a.a. 86-117, human cDNA). The specific amino acids that participate in zinc-binding are indicated.
as §1, with “Protective” for “FIG. 20. Protective”, “To access membrane repair capacity,” for “(a)”, “months) (FIG. 20a).” for “months).”, “Summary data for panel a and b (FIG. 20c). […]” for “(d)”, “indicated (FIG. 20d).” for “indicated.”

[2] = tested on: C2C12 cells expressing GFP-MG53; assay: Repair of acute membrane damage: translocation to microelectrode injury site; assay type: cell-based, murine; conditions: for Membrane Repair (+Zn-HPT): 2 μM Zn-HPT; for Membrane Repair (−Zn-HPT): extracellular solution with nominal free zinc
Description: To follow the process of intracellular vesicle translocation associated with repair of acute membrane damage, GFP-MG53 fusion protein was expressed in C2C12 myoblast cells (FIG. 21a). […]
Cell culture—The C2C12 murine myoblast cell line used for all studies was purchased from the American Type Culture Collection (Manassas, Va.). Cells were grown in a humidified environment at 37° C. and 5% CO2 in DMEM medium for C2C12 or Ham's F12 medium for CHO cells supplemented with 10% fetal bovine serum, 100 units/ml penicillin and 100 ug/ml streptomycin. In order to induce myotube differentiation, C2C12 myoblasts were grown to confluence and the medium was switched to DMEM containing 2% horse serum, penicillin (100 U/ml), streptomycin (100 μg/ml). For transient transfections, C2C12 myoblasts or CHO cells were plated at 70% confluence in glass-bottom dishes. After 24 hours, cells were transfected with plasmids described above using GeneJammer reagent (Stratagene). Cells were visualized by live cell confocal imaging at 24-48 hours after transfection or at times indicated for individual experiments. In some experiments, C2C12 myoblasts were allowed to differentiate into myotubes for the indicated time before observation.
Live cell imaging—To monitor intracellular trafficking of GFP-MG53 either CHO or C2C12 cells were cultured in glass-bottom dishes (Bioptechs Inc.) and transfected with the plasmids described above. Fluorescence images (512×512) were captured at 3.18 s/frame using a BioRad 2100 Radiance laser scanning confocal microscope with a 63×1.3NA oil immersion objective.

[3] = tested on: FDB muscle fibers from mg53−/− mice; assay: FM1-43 dye entry after UV-laser damage, mg53−/− FDB muscle fibers; assay type: cell-based
Description: as §1
as §1, with “Protective” for “FIG. 20. Protective”, “To access membrane repair capacity,” for “(a)”, “months) (FIG. 20a).” for “months).”, “Summary data for panel a and b (FIG. 20c). […]” for “(d)”, “indicated (FIG. 20d).” for “indicated.”

HEK293 cells = assay: LDH release after glass microbead damage, HEK293; assay type: cell-based, human
Description: Recombinant MG53 can protect kidney cells from mechanical cell membrane damage. HEK293 cells (8×10^4) were treated with glass microbeads to induce mechanical damage (FIG. 37). Different does of recombinant human MG53 or vehicle control was applied to the samples when glass beads were added to the media. Cells were rotated on an orbital shaker and then the supernatant was analyzed for LDH levels.
Externally applied recombinant MG53 requires phosphatidylserine (PS) binding to reseal damaged membranes. HEK293 cells were treated with recombinant human MG53 or vehicle and them damaged by shaking in the presence of glass microbeads (black bars) (FIG. 40). Membrane damage is measured by LDH release from cells that is recorded by colormetric assay recorded at 488 nm. […] Thus, MG53 must be able to bind exposed PS on damaged cells in order to facilitate membrane repair. * p<0.05
HEK293 cells were treated with recombinant human MG53 or vehicle and them damaged by shaking in the presence of glass microbeads (black bars) (FIG. 41). Membrane damage is measured by LDH release from cells that is recorded by colormetric assay recorded at 488 nm. […] Thus, MG53 must be able to bind exposed PS on damaged cells in order to facilitate membrane repair. * p<0.05

mg53−/− myotubes = assay: Membrane repair in transfected mg53−/− myotubes; assay type: cell-based, mice; conditions: transfected mg53−/− myotubes; UV injury
Description: The entry of FM4-64, a red-shifted variant of FM1-43, was used as an index of membrane repair capacity in mg53−/− myotubes transfected with GFP-MG53 and GFP-C242A. Following UV-bleaching of the green fluorescence, rapid translocation of GFP-MG53 took place at the injury site, whereas GFP-C242A remained static due to its defective oligomerization properties (FIG. 16E, 17A).
Similar defects with GFP-C29L were also observed in C2C12 myotubes (FIG. 18e, middle).

[4] = C2C12 cells, listed as GFP-C29L/C105S
[5] = C2C12 cells, listed as GFP-C105S

O[C@H](CS)[C@H](O)CS (racemic) [DTT, dithiothreitol, reference compound]
membrane resealing (entry of FM-143 dye) ([1]; isolated muscle fibers, DTT in the extracellular solution): prevents membrane resealing
translocation of GFP-MG53 toward the injury site ([2]; reduced extracellular environment (+DTT), 5 mM DTT): largely disrupted

O=C([O-])CN(CCN(CC(=O)[O-])CC(=O)[O-])CC(=O)[O-].[Ca+2].[Na+].[Na+] [Ca-EDTA]
membrane repair capacity (FM1-43 dye entry) ([1]; WT muscle, Ca-EDTA 100 μM): compromised membrane repair capacity
membrane repair capacity ([3]; mg53−/− muscle, Ca-EDTA): did not produce any significant changes in membrane repair capacity

c1ccc(CN(CCN(Cc2ccccn2)Cc2ccccn2)Cc2ccccn2)nc1 [TPEN, N,N,N,N-tetrakis(2-pyridyl-methyl)ethylenediamine]
membrane repair capacity (FM1-43 dye entry) ([1]; WT fibers, 40 μM TPEN): compromised membrane repair capacity
membrane repair capacity (FM1-43 dye entry) ([3]; mg53−/− fibers, +TPEN): did not produce more entry of FM1-43 dye
translocation of GFP-MG53 containing vesicles toward the mechanical injury site ([2]; 20 μM TPEN in the extracellular solution): completely abolished the translocation

Thimerosal [reference compound]
translocation of GFP-MG53 to injury sites ([2]; oxidizing agent Thimerosal in the extracellular solution): increased translocation

phosphatidylserine [phosphatidylserine (PS), reference compound]
effect on MG53 resealing of plasma membrane (HEK293 cells; simultaneous treatment with recombinant human MG53): can prevent resealing of plasma membrane

B1: Annexin V: a phosphatidylserine (PS) binding protein (protein, UniProt P08758 2-320, looked up)
Annexin A5: AQVLRGTVTDFPGFDERADAETLRKAMKGLGTDEESILTLLTSRSNAQRQEISAAFKTLFGRDLLDDLKSELTGKFEKLIVALMKPSRLYDAYELKHALKGAGTNEKVLTEIIASRTPEELRAIKQVYEEEYGSSLEDDVVGDTSGYYQRMLVVLLQANRDPDAGIDEAQVEQDAQALFQAGELKWGTDEEKFITIFGTRSVSHLRKVFDKYMTISGFQIEETIDRETSGNLEQLLLAVVKSIRSIPAYLAETLYYAMKGAGTDDHTLIRVMVSRSEIDLFNIRKEFRKNFATSLYSMIKGDTSGDYKKALLLLCGEDD
effect on MG53 resealing of plasma membrane (HEK293 cells; excess (5:1), simultaneous with recombinant human MG53): can prevent resealing of plasma membrane

B2: C242A: MG53 mutant, conserved cysteine 242 mutated into alanine (protein)
chain: MSAAPGLLRQELSCPLCLQLFDAPVTAECGHSFCRACLIRVAGEPAADGTVACPCCQAPTRPQALSTNLQLSRLVEGLAQVPQGHCEEHLDPLSIYCEQDRTLVCGVCASLGSHRGHRLLPAAEAQARLKTQLPQQKMQLQEACMRKEKTVAVLEHQLVEVEETVRQFRGAVGEQLGKMRMFLAALESSLDREAERVRGDAGVALRRELSSLNSYLEQLRQMEKVLEEVADKPQTEFLMKFALVTSRLQKILSESPPPARLDIQLPVISDDFKFQVWKKMFRALMPALEELTFDPSSAHPSLVVSSSGRRVECSDQKAPPAGEDTRQFDKAVAVVAQQLLSQGEHYWEVEVGDKPRWALGVMAADASRRGRLHAVPSQGLWLLGLRDGKILEAHVEAKEPRALRTPERPPARIGLYLSFADGVLAFYDASNPDVLTPIFSFHERLPGPVYPIFDVCWHDKGKNAQPLLLVGPEQEQA
modifications: left off: large carriers
notes: MG53 mutant, conserved cysteine 242 mutated into alanine
sarcolemmal membrane repair function ([1]; overexpression in adult wt muscle fibers, compared with GFP-MG53): inhibited sarcolemmal membrane repair function
entry of FM4-64 (membrane repair capacity) (mg53−/− myotubes): not able to restore membrane integrity following injury
translocation to injury site and membrane repair function of GFP fusion protein ([2]; C2C12 cells, acute membrane damage): completely disrupted its ability to facilitate the membrane repair process

B3: C29L/C105S: MG53 double mutant of RING motif (C29L) and B-box motif (C105S) (protein)
chain: B2 chain with C29L, C105S, A242C
modifications: left off: large carriers
Membrane Repair (+Zn-HPT) [2, 4]: completely defective in repair of acute membrane damage
Membrane Repair (−Zn-HPT) [2, 4]: completely defective in repair of acute membrane damage

B4: C105S: MG53 single mutation of the B-box motif (protein)
chain: B2 chain with C105S, A242C
modifications: left off: large carriers
notes: MG53 single mutation of the B-box motif
Membrane Repair (+Zn-HPT) [2, 5]: partial rescue of the membrane repair capacity
Membrane Repair (−Zn-HPT) [2, 5]: could not move to the acute injury site
